According to patent US12115182B2, “Adenosine A2A agonists for the treatment of cytokine storm syndrome” (priority 2021, dated 2024):
Entries after “also recorded” stand apart in the source; their conditions may differ.

Assays:
[1] = system: BAL fluid cytokines and chemokines; test: BAL fluid cytokines/chemokines (31 plex Luminex) in SARS CoV-2-infected K18-hACE2 mice; type: in vivo, mouse
Protocol: Apadenoson treatment elicits cytokine and chemokine responses that are associated with a decrease in weight loss. To assess how apadenoson treatment may be delaying the onset of severe symptoms, mice were treated as before with either vehicle (saline) or apadenoson, delivered with a five-hour delay by osmotic pumps, then euthanized on day five post-infection.
BAL Cytokines: BAL fluid was collected with 700 μL of PBS and cells were removed via centrifugation. The BAL fluid was analyzed by a Luminex Magpix by the UVA Flow Cytometry Core facility using a Mouse 31 plex panel. Statistical changes in cytokine levels were analyzed using Welch's ANOVA followed by Dunnett's T3 multiple comparisons (Graphpad Prism 9.0). P values were adjusted for multiple testing using the Holm-Sidak method.

SARS CoV-2 [2] = test: Viral lung titers (plaque assay) and viral burden (IHC) in K18-hACE2 mice; type: in vivo, mouse
Protocol: Viral Lung titers: Titers were determined as described in Moreau et al. (MOREAU et al., Am. J. Trop. Med. Hyg., (2020), 103:1215-1219). Briefly, lungs were homogenized in serum-free DMEM. Titers were determined by infecting Vero C1008, Clone E6 (ATCC CRL-1586) with serial dilutions of the homogenate. After a two-hour incubation, the diluted homogenates were replaced with a liquid overlay of DMEM, 2.5% FBS containing 1.2% Avicel PH-101 (Sigma Aldrich, St. Louis, MO) and incubated at 37° C., 5% CO2. After three days, the overlay was removed, wells were fixed with 10% formaldehyde, and stained with 0.1% crystal violet to visualize plaques. Plaques were counted and PFUs were calculated according to the following equation: Average # of plaques/dilution factor×volume of diluted virus added to the well.
Histology: Tissues were fixed in 10% formalin. To visualize virus in the lungs, slides were stained with SARS-CoV2 specific anti-nucleoprotein antibody (Cat. No. 9099, ProSci, Poway, CA) as per manufacturer's instructions and then scanned at 20× magnification. The percentage of lung tissue infected with virus was calculated (ImageJ, version 1.53K).

MHS cells = test: RAGE shedding in alveolar macrophages (MHS): Western blot of sRAGE, immunofluorescence of RAGE; type: cell-based, mouse; conditions: GM6001 2 nM, regadenoson 100 nM; for PMA-induced shedding of cell membrane-anchored RAGE: PMA-treated MHS cells, ATL146e 10 nM
[3] = system: SARS-CoV-2 strain B.1.351; type: in vivo, Golden Syrian hamster
SARS CoV-2 [4] = test: Apadenoson in K18-hACE2 mouse model of COVID-19: survival, weight, clinical scores; conditions: for mice survived (combined survival data): Alzet pump 1.44 ug/kg/h, 1250 PFU
Protocol: K18-hACE2 mice, ranging in age from 17 to 30 weeks were divided into three groups. One group received saline (vehicle), another received apadenoson 18 hours before viral challenge (drug) and a third received apadenoson five hours post viral challenge (drug with delay). The mice were challenged intranasally with 1250 PFU SARS CoV-2. Mouse weight and clinical scores were recorded daily. Mice were euthanized when they met the criteria for euthanasia (see methods) or at the end of the experiment, which was day 12 post viral challenge.
Infection and treatment: Twenty-four hours prior to infecting Tg(K18-hACE2)2Prlmn (Jackson Laboratories) male mice with SARS CoV-2, primed 7-day Alzet® osmotic pumps (Durect, Cuperton, CA) containing saline or drug were implanted subcutaneously (MCCRAY et al., J. Virol., (2007), 81:813-821). In the drug with delay treatment group drug delivery was delayed by 24 hours by adding 2.5 cm long tubing to the pump. Apadenoson was delivered at a rate of 1.5 μg/kg/hr. Uninfected littermates received saline or drug with delay via osmotic pumps. Mice were challenged with 1250 plaque forming units (PFU) of Hong Kong/VM20001061/2020 (NR-52282, BEI Resources) via intranasal route under ketamine/xylazine anesthesia. Mice were examined twice daily for clinical symptoms and scored using the following criteria: weight loss (0-5, in 5% of initial weight loss increments), reduced activity (0-3), ruffled fur appearance and hunched posture (0-2), and an eye closure (0-2). Mice were euthanized when weight was <80% of initial weight or when they scored a maximum in two symptom categories. This experiment was repeated three times, with six animals per treatment group each time. […] Statistical differences in weight loss and clinical scores by treatment group were determined using linear mixed models accounting for day post-infection and the day the mouse died (Ime4 and ImerTest packages (BATES et al., J. Stat. Softw., (2015), 67; KUZNETSOVA et al., J. Stat. Softw., (2021), 82) in R (R Core Team 2021). For mice surviving to the end of the experiment (day 12 post-infection), day of death=15 was used. All mouse work was approved by the University's Institutional Animal Care and Use Committee and all procedures were performed in the University's certified animal Biosafety Level Three laboratory, which is fully accredited by the Association for the Assessment and Accreditation of Laboratory Animal Care, International (AAALAC).

COVID-19 patients = conditions: cited from earlier work
[5] = drug with delay treatment group
[6] = PI day 7, compared to control group
[7] = drug and drug with delay-treated groups

For `CCNC(=O)[C@H]1O[C@@H](n2cnc3c(N)nc(C#CC[C@H]4CC[C@H](C(=O)OC)CC4)nc32)[C@H](O)[C@@H]1O` [Apadenoson], the “cytokines/chemokines not different between uninfected, vehicle-infected control and drug with delay-infected mice” value ([1]; BAL fluid, day five post-infection) was 18/31, the “levels of eight cytokines and chemokines (MIG, G-CSF, Eotaxin, MIP1b, VEGF, INF-g, TNF-a, KC) in BAL fluid” value [1, 5] was “not significantly different from uninfected mice” and the “IP-10 level in BAL fluid” value ([1]; drug with delay-infected group compared to vehicle, p=0.0223) was “statistically higher”. The “MCP-1 level in BAL fluid” value ([1]; drug with delay-infected group compared to vehicle, p=0.0351) was “statistically higher”, the “viral titers in lungs of surviving mice” value (SARS CoV-2 [2]; both drug treatment groups) was “below the limit of detection” and the “average viral titer of lung homogenates” value (SARS CoV-2 [2]; [5]) was “trended lower, but was not significant; also recorded: trended lower”. The “viral burden in lungs by IHC staining” value (SARS CoV-2 [2]; drug with delay treatment group, p=0.0012) was “significantly lower”, the “PMA-induced shedding of cell membrane-anchored RAGE” value (“PMA-induced shedding” below) (MHS cells) was “partially inhibited” and the “PMA-induced shedding” value (MHS cells; listed as apadensoson) was “suppressed the shedding of RAGE”. The “albumin leakage into BAL” value [3, 6] was “slight decrease; also recorded: did not significantly”, the “plasma IL13” value [3, 6] was “slightly elevated; also recorded: did not significantly” and the “time course of the disease or viral titer detected in throat swabs” value ([3]; RT-qPCR) was “did not significantly”. For the same compound, the “plasma IL4” value ([3]; compared to control) was “depressed; also recorded: did significantly”, the “decrease in weight gain” value ([3]; daily weights, vs control group) was “did not significantly” and the “histologic distribution or severity of lung pathology” value ([3]; day 7) was “did not significantly”. For the same compound, the “plasma Transforming Growth Factor beta (TGFb)” value ([3]; day 7, compared to control) was “decreased; also recorded: did significantly”, the “spread of virus to olfactory bulb (brain)” value ([3]; day 7, compared to control) was “decreased; also recorded: did significantly” and the “respiratory physiology parameters (EF50, Rpef, Penh)” value ([3]; whole body plethysmography, PI day 7) was “did not significantly”. For the same compound, the “clinical scores compared to vehicle” value (SARS CoV-2 [4]; [7]) was “statistically significantly lower”, the “weight loss compared to vehicle” value (SARS CoV-2 [4]; [7]) was “less weight loss” and the “weight loss and clinical scores on day five post-infection” value (SARS CoV-2 [4]; drug with delay vs vehicle) was “not statistically different between groups”. For the same compound, the “mice survived (combined survival data)” value (SARS CoV-2 [4]; drug with delay) was 5/12, the “survival curve compared to vehicle” value (SARS CoV-2 [4]; drug with delay-treated group, p=0.0002) was “significantly different than vehicle” and the “mice survived (combined survival data)” value (SARS CoV-2 [4]; drug with no delay) was 4/12. For the same compound, the “survival curve compared to vehicle” value (SARS CoV-2 [4]; drug-treated group, p=0.066) was “did not differ significantly”.

In the case of `CNC(=O)[C@H](Cc1c[nH]c2ccccc12)NC(=O)[C@@H](CC(=O)NO)CC(C)C` [GM6001], the “sRAGE shedding on LPS-treated MHS cells” value (MHS cells; LPS 75 ng/ml, apadenoson 10 nM) was “inhibited sRAGE shedding”, the “levels of sRAGE in the conditional media (Western blot)” value (MHS cells; PMA (20 nM)-treated MHS cells, 24 hours) was “decreased” and the “PMA-induced shedding” value (MHS cells) was “suppressed the shedding of RAGE; also recorded: partially blocked”.

In the case of `Nc1ncnc2c1ncn2[C@@H]1O[C@H](CO)[C@@H](O)[C@H]1O` [adenosine], the “increase in PaO2/FiO2-ratio” value (COVID-19 patients; aerosolized, twice daily, in 13 out of 14 patients) is given as over 30% and the death rate (COVID-19 patients; inhaled adenosine group, 1/14, control group 11/52 (21%)) is given as 7%.
